Measured values: BindingDB's records for doi:10.7270/Q2S180X7 (Vanderbilt Screening Center For Gpcrs, Ion Channels and …, 2009)

Molecular target: T1, Muscarinic acetylcholine receptor M5 (Homo sapiens, UniProt P08912)
T1 sequence (P08912 whole entry): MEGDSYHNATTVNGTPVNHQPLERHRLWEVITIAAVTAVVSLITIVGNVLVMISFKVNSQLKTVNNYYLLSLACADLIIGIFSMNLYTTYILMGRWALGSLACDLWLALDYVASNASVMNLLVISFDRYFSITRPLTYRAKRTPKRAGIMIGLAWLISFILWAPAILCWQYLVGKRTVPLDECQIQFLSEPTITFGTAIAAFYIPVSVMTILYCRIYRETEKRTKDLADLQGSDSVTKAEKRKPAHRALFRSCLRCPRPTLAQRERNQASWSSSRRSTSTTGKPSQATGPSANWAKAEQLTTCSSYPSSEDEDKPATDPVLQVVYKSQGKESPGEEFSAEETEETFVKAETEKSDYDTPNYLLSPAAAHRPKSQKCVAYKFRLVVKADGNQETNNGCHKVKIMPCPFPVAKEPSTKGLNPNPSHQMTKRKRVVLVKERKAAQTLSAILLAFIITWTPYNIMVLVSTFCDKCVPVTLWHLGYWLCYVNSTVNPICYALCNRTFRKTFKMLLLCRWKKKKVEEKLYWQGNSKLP
Experiment: binding competition at muscarinic M5 – biochemical, [3H]N-methylscopolamine (AID 2192)
Conditions: inactive by the depositor's call

Compound COc1ccc(CN2C(=O)C(=O)c3cc(OC(F)(F)F)ccc32)cc1 [VU0238429] has an EC50 of 1710 nM.
